The subject of series [1] is chemotherapy-induced peripheral neuropathy. The conditions noted are these: cited from earlier work.
Series [2] shares this test system. The following applies: treatment of CIPN; guideline rating; cited from earlier work.
Series [3] has as its system paclitaxel (albumin bound) chemotherapy-induced peripheral neuropathy. The experiment in a line: Paclitaxel (albumin bound) chemotherapy-induced peripheral neuropathy in rats, butylphthalide intragastric administration (Example 2). Format: in vivo, SD (Sprague Dawley) rats. The conditions noted are these: duloxetine hydrochloride 15 mg/kg qd, compared with the model group. As for the experimental part: The model group was given vegetable oil at the same frequency and with the same administration method as NBP. The normal group was given normal saline at the same frequency and with the same administration method as ab-PTX, and was given vegetable oil at the same frequency and with the same administration method as NBP. […] (2) Thermal pain threshold: measurements were performed on days −1, 7, and 14. Method: IITC Life Science Electronic Von Frey Anesthesio meter was used and the intensity of the light source was adjusted to obtain a baseline of thermal pain threshold of about 3-6 s. […] The rats were placed in a plastic compartment on a glass plate, to make the planta centers of the rats be exposed to the light source. […] (3) Mechanical stimulus pain threshold: measurements were performed on days 0, 6, and 13. Method: the rats were placed in a plastic compartment on a wire mesh, left to stand still for 15 min, stimulated using a stimulation probe with a diameter of 0.4 mm of the IITC Life Science Electronic Von Frey Anesthesio meter at the planta centers of the rats by gradually increasing the force until reflexive withdrawal of the rats.

For a further series, the system named is MM.1S xenograft tumor. The experiment in a line: Influence of NBP on in vivo anti-tumor efficacy of Bortezomib, MM.1S xenograft (Example 8). More on the design: species or system Nu/Nu mice. The method, then: After in vitro resuscitation and passage of MM.1S cells to a sufficient amount, the cells were counted by a microscope, and diluted with a serum-free medium to adjust the cell count to about 1×10^8 cells/mL. The cell suspension was kept in an ice-water bath. The MM.1S cell suspension was extracted by a sterile syringe and inoculated into the subcutaneous tissue of the forelimb axilla of the Nu/Nu mice. […] Monotherapy group of Palbociclib: intragastric administration at 70 mg/kg, qd (the administration was commenced on day 0); […] The solvent group was given the solvent at the same frequency and with the same administration method as Bortezomib and NBP. The administration period was 16 days, and the administration volume was 10 mL/kg. […] Animals were weighed at set time once per day after the commencement of administration. After animals were grouped, the long diameter and the short diameter of the tumor were measured twice every week. […] V=1⁄2×A×B^2 […] (4) Tumor growth inhibition rate: Note: V: tumor volume; A: tumor length; B: tumor width; RTV: relative tumor volume; TVnd: tumor volume on day n; TV0d: tumor volume on day 0; […]: mean relative tumor volume on day n; TVXn: mean tumor volume of the therapy group on day n; TVX0: mean tumor volume of the therapy group on day 0; TVMn: mean tumor volume of the solvent group on day n; and TVM0: mean tumor volume of the solvent group on day 0 At the end of the experiment, after the animals were euthanized by CO2 asphyxiation, the tumors were excised and weighed.

The conditions of series [4]: when the chemotherapy is stopped; cited from earlier work.
The mark [5] stands for this setting: prevention of CIPN, guideline rating.
Where [6] appears, read: prevention of CIPN, patients receiving oxaliplatin treatment.
[7] abbreviates: prevention of CIPN, patients receiving cisplatin/oxaliplatin-based chemotherapy.
Where [8] appears, read: prevention of CIPN, patients receiving paclitaxel/carboplatin chemotherapy.
[9] abbreviates: day 14, Bor 0.5 mg/kg, Pal 70 mg/kg, NBP 60 mg/kg, alone or combined.
Setting [10] is: day 14, Bor 0.5 mg/kg, Pal 70 mg/kg, NBP 60 mg/kg, alone or combined, mean, n=6.

Where a name gives a salt, the structure may show the parent alone. Read-outs that look alike come from different tables or passages of the source.

The text below walks through data of patent US20230144023A1, “USE OF BUTYLPHTHALIDE AND DERIVATIVE THEREOF” (CSPC NBP PHARMACEUTICAL CO., LTD, priority 2020, published 2023).

Regarding `N[C@@H](CCC(=O)O)C(=O)O` [Glutamate], in series [1] (setting [5]), the Efficacy entry is reported as “Low” and the Safety entry was “Low”.

For the compound `CC(=O)N[C@@H](CS)C(=O)O` [Acetylcysteine], in series [1] (setting [5]), the Efficacy result is “Low” and the Safety entry is “Low”.

Turning to `CN(C)CCC=C1c2ccccc2CCc2ccccc21` [Amitriptyline], in series [1] (setting [5]), the Efficacy entry was “No evidence” and the Safety result is “Moderate”.

For the compound `NCCCNCCSP(=O)(O)O` [Amifostine], in series [1] (setting [5]), the Efficacy entry is “Low” and the Safety result is on record as “Moderate”.

Consider `NCC1(CC(=O)O)CCCCC1` [Gabapentin], for which, in series [2], the Efficacy entry is given as “Low” and the Safety entry is “Low”.

On to `CNCC[C@H](Oc1cccc2ccccc12)c1cccs1` [Duloxetine], for which, in series [2], the Efficacy result is given as “Moderate” and the Safety result is on record as “Low”.

Turning to Vitamin E, in series [1] (setting [5]), the Efficacy result is “Low” and the Safety entry was “Low”.

As for `Nc1nnc(-c2cccc(Cl)c2Cl)c(N)n1` [Lamotrigine], in series [2], the Efficacy entry was “No evidence” and the Safety result is given as “Low”.

Turning to `CC1=C(/C=C/C(C)=C/C=C/C(C)=C/C(=O)O)C(C)(C)CCC1` [All-trans retinoic acid], in series [1] (setting [5]), the Efficacy entry is recorded as “Low” and the Safety result is “Moderate”.

As for Omega-3-fatty acid, in series [1] (setting [6]), the Efficacy entry was “Low” and the Safety result is reported as “Low”.

On to `CCN(CC)C(=S)S` [Diethyldithio-carbamate], for which the Safety entry in series [1] (setting [5]) is on record as “High”.

`CC(=O)O[C@H](CC(=O)[O-])C[N+](C)(C)C` [Acetyl L-carnitine]: in series [1] (setting [5]), the Efficacy result was “Low” and the Safety result was “Low”. Besides, in series [2], the Efficacy result is “Low” and the Safety result is given as “Moderate”.

Turning to `COCCOC(=O)C1=C(C)NC(C)=C(C(=O)OC(C)C)C1c1cccc([N+](=O)[O-])c1` (stereo not drawn) [Nimodipine], the Safety result in series [1] (setting [5]) is listed as “Moderate”.

In the case of “rhuLIF: intervention for prevention of CIPN listed in the ASCO guideline table”, the Safety entry in series [1] is reported as “Low”. The Efficacy result in series [1] (setting [5]) was “No evidence”.

Turning to `CNCC[C@H](Oc1cccc2ccccc12)c1cccs1` [duloxetine hydrochloride, Duloxetine hydrochloride], in series [3] (NBP 3, 10 and 30 mg/kg bid, intragastric, throughout administration), the “body weights of the rats” value is “significantly increase”. In series [3] (day 13, NBP 10 and 30 mg/kg bid, P<0.05), the mechanical pain threshold result is “significantly decreased”. In addition, the thermal pain threshold entry in series [3] (day 14, NBP 3, 10 and 30 mg/kg bid, P<0.05) was “significantly decreased”.

On to `N[C@@H](CCC(=O)N[C@@H](CS)C(=O)NCC(=O)O)C(=O)O` [Glutathione], for which, in series [1] (setting [7]), the Efficacy result is listed as “Low” and the Safety result is on record as “Low”. In series [1] (setting [8]), the Efficacy entry is listed as “Low” and the Safety entry is recorded as “Low”.

Regarding Amitriptyline/nortriptyline, the Efficacy entry in series [2] is on record as “Low”.

In the case of `NC(=O)N1c2ccccc2C=Cc2ccccc21` [Carbamazepine], in series [1] (setting [5]), the Efficacy result was “Low” and the Safety result was “Low”.

Regarding `COc1ccc(C(CN(C)C)C2(O)CCCCC2)cc1` (stereo not drawn) [Venlafaxine], in series [1] (setting [5]), the Efficacy entry is reported as “Low” and the Safety result was “Low”.

As to `CC(=O)c1c(C)c2cnc(Nc3ccc(N4CCNCC4)cn3)nc2n(C2CCCC2)c1=O` [Palbociclib], in the series on MM.1S xenograft tumor (setting [9]), the T/C % was found to be 44.4% and the TGI % worked out at 56.3%. Besides, in the series on MM.1S xenograft tumor (setting [10]), the RTV stood at 4.3 and the TV came out at 605.4 mm^3. In the series with MM.1S xenograft tumor (end of experiment, Bor 0.5 mg/kg, Pal 70 mg/kg, NBP 60 mg/kg, alone or combined), the “Tumor weight inhibition rate” value was determined as 66.6%. For the same compound, in the series with MM.1S xenograft tumor (end of experiment, Bor 0.5 mg/kg, Pal 70 mg/kg, NBP 60 mg/kg, alone or combined, mean, n=6, in g (unit assumed)), the Tumor weight came out at 0.550. For the same compound, the “body weights of the mice” value with MM.1S xenograft tumor (mouse, in vivo) is on record as “no significant difference”.

`CC[C@]1(O)C[C@H]2CN(CCc3c([nH]c4ccccc34)[C@@](C(=O)OC)(c3cc4c(cc3OC)N(C=O)[C@H]3[C@@](O)(C(=O)OC)[C@H](OC(C)=O)[C@]5(CC)C=CCN6CC[C@]43[C@@H]65)C2)C1` [vincristine]: in series [4], the patients experiencing coasting is 30%.
